Results from patent US10046048B2, “Homogenous suspension of immunopotentiating compounds and uses thereof” (GlaxoSmithKline Biologicals SA, priority 2009, dated 2018).

Tests used:
[1] = aqueous solubility and chemical stability of Example 47; assay type: physicochemical
Procedure: Example 47 is a highly crystalline drug substance with very good chemical stability. Due to its extremely low aqueous solubility across full pH range (<0.5 μg/ml) and its high hydrophobic core structure, formulation with Alum (the only vaccine adjuvant licensed in the U.S.) is challenging. However, TLR7 agonist-Alum based vaccines could provide advantages, for example, induction of Th1 polarized response, and enhanced Serum Bactericidal Activity (SBA) and breath of coverage (e.g., MenB).

[2] = particle size after vortexing, sonication, mortar and pestle; assay type: physicochemical; conditions: for average particle size: 2.5 mg/mL in 0.1% Tween 80 and 0.5% CMC, vortexing
Procedure: A number of homogenization methods were evaluated, including vortexing, sonication, and mortar and pestle method.
For vortexing, Example 47 was suspended at 2.5 mg/mL in 0.1% Tween 80 and 0.5% carboxymethyl cellulose (CMC), followed by vortexing. The average particle size was ˜100 μm.
For sonication, Example 47 was suspended at 2.5 mg/mL in 0.1% Tween 80 and 0.5% CMC followed by vortexing. The mixture was then subject to probe sonication for 5 minutes (with ice at 3 W, maximum power based on vial size). Finally, the mixture was homogenized by a handheld homogenizer for a few minutes. The average particle size was ˜80 μm.
In mortar and pestle method, 10 mg of Example 47 was ground for 5 minutes using mortar and pestle, then suspended in 0.5% Tween 80. […] Size range for the larger peak was 1-100 μm.

[3] = matrix of surfactants and suspending agents, size distribution by Mastersizer; assay type: physicochemical; conditions: vortexed, probe sonicated, homogenized
Procedure: A number of surfactants and suspension agents were also evaluated. The matrix of surfactants and suspending agents, and the corresponding sizes distributions of the suspension particles are shown in the Table 1 below (D50, D90 (μm)).
In each experiment, 10 mg of Example 47 was mixed with 2 mL surfactant and 2 mL suspending agent. The mixtures were vortexed for 5 minutes, and probe sonicated at 3 W and homogenized for 2-4 minutes. The size distributions of the samples were measured using Mastersizer.
No visual size reduction was observed after sonication. Some size reduction was noticed visually after homogenization.

[4] = serum, injection site muscle and lymph node levels after intramuscular injection; assay type: in vivo; conditions: mice, intramuscular 4 mpk with 3MenB/Alum; both DMSO (non-homogeneous) and homogeneous suspensions
RSV virus = test: neutralizing titers (PRNT60), RSV model; assay type: in vivo, respiratory syncytial virus (RSV); conditions: Study 1; Balb/c mice; 25 μg dose
From the text: Mice were bled retro-orbitally on day 28.

[5] = 10 mg ground 5 minutes with mortar and pestle, suspended in 0.5% Tween 80
[6] = 0.5% CMC, 0.5% Sodium Lauryl Sulfate
[7] = 0.5% HPC, 0.5% Sodium Lauryl Sulfate
[8] = 0.5% HPMC, 0.5% Sodium Lauryl Sulfate

With `Cc1ccc(CCc2cnc3c(N)nc4ccccc4c3c2)c(C)c1` [Example 47, 2-(2,4-dimethylphenethyl)benzo[f][1,7]naphthyridin-5-amine] the solubility ([1]; aqueous media, across full pH range) was < 0.5 µg/mL, the chemical stability ([1]; crystalline drug substance) was “very good” and the average particle size [2] was ~100 μm. For the same compound, the average particle size ([2]; probe sonication 5 minutes, handheld homogenizer) was ~80 μm, the “particle size peak (larger)” value [2, 5] was ~8 μm and the “particle size peak (smaller)” value [2, 5] was 0.1 μm. The “size range for the larger peak” value [2, 5] was 1-100 μm, the D50 ([3]; 0.5% CMC, 0.1% Tween 80) was 76.2 μm and the D90 ([3]; 0.5% CMC, 0.1% Tween 80) was 144.7 μm. The D50 ([3]; 0.5% CMC, 0.5% Pluronic F-68) was 49.1 μm, the D90 ([3]; 0.5% CMC, 0.5% Pluronic F-68) was 104.4 μm and the D50 [3, 6] was 28.0 μm. For the same compound, the D90 [3, 6] was 53.3 μm, the D50 ([3]; 0.5% CMC, 0.5% Tween 80) was 75.8 μm and the D90 ([3]; 0.5% CMC, 0.5% Tween 80) was 149.1 μm. For the same compound, the D50 ([3]; 0.5% HPC, 0.1% Tween 80) was 43.6 μm, the D90 ([3]; 0.5% HPC, 0.1% Tween 80) was 68.0 μm and the D50 ([3]; 0.5% HPC, 0.5% Pluronic F-68) was 35.8 μm. For the same compound, the D90 ([3]; 0.5% HPC, 0.5% Pluronic F-68) was 54.9 μm, the D50 [3, 7] was 38.9 μm and the D90 [3, 7] was 53.1 μm. The D50 ([3]; 0.5% HPC, 0.5% Tween 80) was 35.4 μm, the D90 ([3]; 0.5% HPC, 0.5% Tween 80) was 53.5 μm and the D50 ([3]; 0.5% HPMC, 0.1% Tween 80) was 25.8 μm. For the same compound, the D90 ([3]; 0.5% HPMC, 0.1% Tween 80) was 53.5 μm, the D50 ([3]; 0.5% HPMC, 0.5% Pluronic F-68) was 19.4 μm and the D90 ([3]; 0.5% HPMC, 0.5% Pluronic F-68) was 33.5 μm. The D50 [3, 8] was 26.8 μm, the D90 [3, 8] was 59.3 μm and the D50 ([3]; 0.5% HPMC, 0.5% Tween 80) was 27.5 μm. For the same compound, the D90 ([3]; 0.5% HPMC, 0.5% Tween 80) was 49.7 μm, the systemic exposure [4] was “low systemic exposure” and the “neutralizing titers, comparison of doses” value (RSV virus) was “Highest neutralizing titers”.
